From patent publication US20130211215A1, “HYPEROSMOTIC PREPARATIONS COMPRISING 5-AMINOLEVULINIC ACID OR DERIVATIVE AS PHOTOSENSITIZING AGENT” (Photocure ASA, priority 2010, published 2013)

What was measured:
[1] = design: species or system mice; conditions: C3.Cg/TifBomTac-hr (hairless), mouse, in vivo
Method: (§1) The purpose of this study was to investigate the effect of adding sorbitol to an enema formulation containing 20 mM ALA hexylester in an attempt to reduce the systemic uptake of the photosensitizer. It was discovered in pilot experiments that sorbitol at concentrations above 300 mM gave diarrhea. Therefore, the effect of 300 mM sorbitol in 0.9% NaCl (600 mOsmol/l) was investigated by comparing the skin fluorescence in two mice that were given 20 mM ALA hexylester (in 0.9% NaCl) with the skin fluorescence in two mice that had received 20 mM ALA hexylester and 300 mM sorbitol. The osmolarities of these solutions are outlined below. • 1. 20 mM ALA hexylester in 0.9% NaCl: (40+300) mOsmol/l=340 mOsmol/l • 2. 20 mM ALA hexylester and 300 mM sorbitol in 0.9% NaCl: (40+300+300) mOsmol/l=640 mOsmol/l (hypertonic preparation)

[2] = Systemic uptake from the colon assessed as PpIX skin fluorescence after colonic instillation; format: in vivo, hairless mice (C3.Cg/TifBomTac-hr)
Method: Experiments were performed in hairless mice weighing 20 g (C3.Cg/TifBomTac-hr). […] The animals were fasted for 24 hours but with free access to water before the experiment. Prior to administration of the test preparation, the mice were anaesthetised with Hypnorm/Dormicum. This was also repeated every second hour.
When ALA hexylester is administered sytemically, it induces PpIX formation in the entire body. The systemic uptake of ALA hexylester after colonic administration was therefore assessed as skin fluorescence. To assess the PpIX skin fluorescence, the mice were photographed using a fluorescence camera (Medeikonos PDD/PDT, Medeikonos AB, Gothenburg, Sweden) at excitation wavelengths of 365 and 405 nm and 2 sec illumination time. Each photo was calibrated to a fluorescence standard (Uranyl Standard, J&M, Analytische Mess and Regeltecknik, GmbH, Hamburg, Germany) and adjusted for background fluorescence. The mean amount of PpIX fluorescence in each image was calculated by means of image analyzer-software (MatLab 7.2.0.232, Math-Works, Natick, Mass., USA).
All dilutions were performed in 0.9% NaCl (150 mM=300 mOsmol/l). For the colon instillation, a 1000 μl micropipette with a plastic tip was used. […] In all experiments, instillation lasted until the experiment was finished (approx. 5 hours).
Increasing doses (8 to 40 mM ALA hexylester) were given by anal administration to mice and the resulting skin fluorescence measured as described. […] The resulting systemic fraction was proportional to the concentration of ALA hexylester in the enema.
The ALA hexylester was dissolved as the corresponding hydrochloride salt. 20 mM ALA hexylester constitutes an osmolarity of approx. 40 mOsmol/l.
as §1

[3] = Osmolarity of preparations; format: physicochemical; conditions: calculated from concentrations
From the text: An osmometer may be used to determine the osmolarity of a solution. There are several different techniques employed in osmometry; vapour pressure depression osmometers determine the concentration of osmotically active particles that reduce the vapour pressure of a solution; membrane osmometers measure the osmotic pressure of a solution separated from pure solvent by a semi-permeable membrane; and freezing point depression osmometers are used to determine the osmotic strength of a solution (since osmotically active compounds depress the freezing point of a solution). Osmolarity may be measured using a vapour pressure osmometer such as that supplied by ELITech Group (Vapro 5600 vapour pressure osmometer). Where reference is made herein to specific values for osmolarity, these values may be determined using such apparatus operated under standard temperature and pressure conditions.
The osmolarity of small molecules can normally be calculated from their concentration in solution. For example, in the case of simple salts such as NaCl: 0.9% NaCl=150 mM. NaCl is fully dissociated in water and both Na^+ and Cl^− contribute to the osmolarity (i.e. each mole of NaCl becomes two osmoles in solution, one mole of Na^+ and one mole of Cl^−). The osmolarity is therefore 150 mM×2=300 mOsmol/l. […]

[4] = system: pre-malignant conditions in the colon; conditions: enema, 200 mg in 500 ml or 1000 ml phosphate buffered saline; Mayinger et al. 2008; cited from earlier work
[5] = Absorption from the colon after enema (pharmacokinetic studies with 14C-labelled agents, HAL enema studies); format: in vivo; conditions: enema preparations
From the text: Such high systemic uptake of photosensitizer may constitute a safety issue for the patient due to the high dosage of agent circulating within the bloodstream.

sorbitol concentration that gave diarrhea [1]	skin fluorescence ([2]; 8 mM ALA hexylester (concentration used clinically), colonic instillation 0.6 ml in 0.9% NaCl, FIG. 1)	skin fluorescence ([2]; 20 mM ALA hexyl ester, colonic administration)	relationship between concentration in the enema and resulting skin fluorescence ([2]; 8 to 40 mM, anal administration, FIG. 1)	concentration of ALA hexylester appearing saturating for skin fluorescence ([2]; colonic instillation 0.6 ml in 0.9% NaCl, FIG. 1) [µM]	osmolarity [3]	SMILES	more polyps detected by PDD than with white light endoscopic imaging [4] [%]	absorption of the active photosensitizing agent in the colon [5]
above 300 mM	–	–	–	–	–	OC[C@@H](O)[C@@H](O)[C@H](O)[C@@H](O)CO [sorbitol]	–	–
–	no skin fluorescence	reasonable levels of skin sensitivity	clear dose-response relationship	≥ 30000	approx. 40 mOsmol/l	CCCCCCOC(=O)CCC(=O)CN [ALA hexylester, 5-aminolevulinic acid hexyl ester]	28	absorption of a significant amount
